From ChEMBL document CHEMBL5614431, “Discovery of 1,3,4-oxadiazoles with slow-action activity against Plasmodium falciparum malaria parasites” (Eur J Med Chem, 2024)
Active and inactive are the calls of the source. The rule behind the calls is not given here.

Assays:
[1] = tested on: Plasmodium falciparum; assay: Antimalarial activity against synchronous ring stage Plasmodium falciparum 3D7 infected in human Erythrocyte assessed as inhibition of parasite growth incubated for 96 hrs by [3H]-hypoxanthine incorporation assay; assay type: functional, organism-based; settings: 3D7, Erythrocyte
[2] = AUC (0 to t) in non fasted female BALB/c mouse plasma at 100 mg/kg, po via gavage and measured after 4 hrs by LC-MS analysis; assay type: ADME, organism-based
[3] = Selectivity index, ratio of IC50 for cytotoxicity against human NFF cells to IC50 for antimalarial activity against synchronous ring stage Plasmodium falciparum 3D7 infected in human Erythrocyte assessed as inhibition of parasite growth incubated for 96 hrs; assay type: toxicity, cell-based; settings: read-out: Ratio IC50
[4] = Tmax in non fasted female BALB/c mouse at 100 mg/kg, po via gavage and measured upto 24 hrs by LC-MS analysis; assay type: ADME, organism-based; settings: in vivo
[5] = tested on: Plasmodium falciparum; assay: Antimalarial activity against synchronous ring stage Plasmodium falciparum 3D7 infected in human Erythrocyte assessed as inhibition of parasite growth incubated for 48 hrs by [3H]-hypoxanthine incorporation assay; assay type: functional, organism-based; settings: 3D7, Erythrocyte
[6] = AUC (0 to infinity) in non fasted female BALB/c mouse at 100 mg/kg, po via gavage and measured upto 24 hrs by LC-MS analysis; assay type: ADME, organism-based; settings: in vivo
[7] = Apparent half life in non fasted female BALB/c mouse at 100 mg/kg, po via gavage and measured upto 24 hrs by LC-MS analysis; assay type: ADME, organism-based; settings: in vivo, read-out: t1/2(app) (converted)
[8] = Cytotoxicity against human NFF cells assessed as reduction in cell viability incubated for 72 hrs by SRB assay; assay type: toxicity, cell-based
[9] = Selectivity ratio of IC50 for antimalarial activity against synchronous ring stage Plasmodium falciparum 3D7 infected in human Erythrocyte assessed as inhibition of parasite growth incubated for 48 hrs by [3H]-hypoxanthine incorporation assay to IC50 for antimalarial activity against synchronous ring stage Plasmodium falciparum 3D7 infected in human Erythrocyte assessed as inhibition of parasite growth incubated for 48 hrs by [3H]-hypoxanthine incorporation assay; assay type: functional
[10] = Cmax in non fasted female BALB/c mouse plasma at 100 mg/kg, po via gavage and measured upto 24 hrs by LC-MS analysis; assay type: ADME, organism-based
[11] = tested on: Plasmodium berghei; assay: Antimalarial activity against Plasmodium berghei ANKA infected in female BALB/c mouse model assessed as reduction in parasitemia at 10 mg/kg, po qd pre-infected for 2 hrs followed by compound addition and measured after 3 days by microscopic analysis; assay type: functional, organism-based; settings: time 3.0 day
[12] = AUC (0 to t) in non fasted female BALB/c mouse plasma at 100 mg/kg, po via gavage and measured after 7.5 hrs by LC-MS analysis; assay type: ADME, organism-based
[13] = Chemical stability of the compound in 1:1 mixture of 6M aqueous hydrochloric acid/THF assessed as degradation measured over 20 hrs; assay type: physicochemical; settings: buffer
[14] = Metabolic stability in mouse liver microsomes assessed as half life; assay type: ADME, Microsome
[15] = Metabolic stability in human liver microsomes assessed as half life; assay type: ADME, Microsome
[16] = Apparent permeability of the compound in human Caco-2 cells across apical to basolateral side; assay type: ADME, cell-based
[17] = Selectivity ratio of IC50 for antimalarial activity against synchronous ring stage Plasmodium falciparum 3D7 infected in human Erythrocyte assessed as inhibition of parasite growth incubated for 96 hrs supplemented with IPP by [3H]-hypoxanthine incorporation assay to IC50 for antimalarial activity against synchronous ring stage Plasmodium falciparum 3D7 infected in human Erythrocyte assessed as …; assay type: functional
[18] = tested on: Plasmodium falciparum; assay: Antimalarial activity against synchronous ring stage Plasmodium falciparum 3D7 infected in human Erythrocyte assessed as inhibition of parasite growth incubated for 96 hrs supplemented with IPP by [3H]-hypoxanthine incorporation assay; assay type: functional, organism-based; settings: 3D7, Erythrocyte
[19] = tested on: Plasmodium falciparum; assay: Antimalarial activity against multidrug-resistant synchronous ring stage Plasmodium falciparum Dd2 infected in human Erythrocyte assessed as inhibition of parasite growth incubated for 96 hrs by [3H]-hypoxanthine incorporation assay; assay type: functional, organism-based
[20] = Selectivity ratio of IC50 for antimalarial activity against multidrug-resistant synchronous ring stage Plasmodium falciparum Dd2 infected in human Erythrocyte assessed as inhibition of parasite growth incubated for 48 hrs by [3H]-hypoxanthine incorporation assay to IC50 for antimalarial activity against multidrug-resistant synchronous ring stage Plasmodium falciparum Dd2 infected in human …; assay type: functional
[21] = tested on: Plasmodium falciparum; assay: Antimalarial activity against multidrug-resistant synchronous ring stage Plasmodium falciparum Dd2 infected in human Erythrocyte assessed as inhibition of parasite growth incubated for 48 hrs by [3H]-hypoxanthine incorporation assay; assay type: functional, organism-based
[22] = tested on: Plasmodium falciparum; assay: Resistance index, ratio of IC50 for antimalarial activity against multidrug-resistant synchronous ring stage Plasmodium falciparum Dd2 infected in human Erythrocyte assessed as inhibition of parasite growth incubated for 96 hrs by [3H]-hypoxanthine incorporation assay to IC50 for antimalarial activity against synchronous ring stage Plasmodium falciparum 3D7 infected in human Erythrocyte assessed …; assay type: toxicity, organism-based

O=S(=O)(CC1CCC1)c1nnc(N2CCOCC2)o1
IC50 [1]: 0.53 µM
AUC(0-t) at 4 h [2]: 3.61 µM·h
selectivity ratio at 96 h [3]: > 186
Tmax [4]: 15 min
IC50 [5]: > 10 µM
AUC(0-inf) [6]: 3.91 µM·h
half-life [7]: 57 min
IC50 at 72 h [8]: > 100 µM
Ratio IC50 [9]: >19
Cmax [10]: 2140 nM

CCN(CC)CCCC(C)Nc1ccnc2cc(Cl)ccc12 (stereo not given) [CHLOROQUINE]
IC50 at 72 h [8]: 36.7 µM
Activity [11]: Active

C[C@@H]1CCC[C@H](C)N1c1nnc(S(=O)(=O)C2CCCCC2)o1
AUC(0-t) at 7.5 h [12]: 0.39 µM·h
IC50 [1]: 0.08 µM
selectivity ratio at 96 h [3]: > 1670
Tmax [4]: 30 min
IC50 [5]: > 12.5 µM
Stability [13]: Stable
AUC(0-inf) [6]: 0.41 µM·h
half-life [7]: 96 min
IC50 at 72 h [8]: > 100 µM
Ratio IC50 [9]: >165
Cmax [10]: 310 nM

O=S(=O)(c1nnc(N2CCCCCC2)o1)C1CCCCC1
IC50 [1]: 0.09 µM
selectivity ratio at 96 h [3]: > 1150
IC50 [5]: > 10 µM
half-life [14]: 7 min
IC50 at 72 h [8]: > 100 µM
Ratio IC50 [9]: >114
half-life [15]: 68 min

O=S(=O)(c1nnc(N2CCC3(CC2)COC3)o1)C1CCCCC1
IC50 [1]: 0.1 µM
selectivity ratio at 96 h [3]: > 1020
IC50 [5]: > 10 µM
half-life [14]: 18 min
IC50 at 72 h [8]: > 100 µM
Papp A→B [16]: 44 ×10⁻⁶ cm/s
Ratio IC50 [9]: >102
half-life [15]: 112 min

CCC[C@@H]1C[C@@H](C(=O)N[C@@H]([C@H]2O[C@H](SC)[C@H](O)[C@@H](O)[C@H]2O)[C@H](C)Cl)N(C)C1 [CLINDAMYCIN]
Ratio IC50 [17]: 3571
IC50 [18]: > 25 µM

Cc1ccc(C)c(CS(=O)(=O)c2nnc(N3CCOCC3)o2)c1
IC50 [1]: 0.84 µM
selectivity ratio at 96 h [3]: 24
IC50 [5]: 12.4 µM
Ratio IC50 [17]: 1
half-life [14]: 3 min
IC50 [19]: 0.57 µM
Ratio IC50 [20]: 23
IC50 at 72 h [8]: 20.4 µM
Papp A→B [16]: 39 ×10⁻⁶ cm/s
IC50 [21]: 13 µM
Ratio IC50 [9]: 15
Ratio IC50 [22]: 0.7
IC50 [18]: 0.84 µM
half-life [15]: 5 min

O=S(=O)(c1nnc(N2CCOCC2)o1)C1CCCCCC1
AUC(0-t) at 7.5 h [12]: 1.16 µM·h
IC50 [1]: 0.18 µM
selectivity ratio at 96 h [3]: > 769
Tmax [4]: 15 min
IC50 [5]: > 25 µM
IC50 at 72 h [8]: > 100 µM
Ratio IC50 [9]: >137
Cmax [10]: 650 nM

CC1CCN(c2nnc(S(=O)(=O)Cc3ccc(Cl)c(Cl)c3)o2)CC1
IC50 [1]: 0.16 µM
selectivity ratio at 96 h [3]: 162
IC50 [5]: 11.5 µM
Ratio IC50 [17]: 1
half-life [14]: < 2 min
IC50 [19]: 0.07 µM
Ratio IC50 [20]: 145
IC50 at 72 h [8]: 26 µM
IC50 [21]: 10.1 µM
Ratio IC50 [9]: 72
Ratio IC50 [22]: 0.4
IC50 [18]: 0.2 µM
half-life [15]: 3 min

O=S(=O)(CC1CCCCC1)c1nnc(N2CCOCC2)o1
IC50 [1]: 0.39 µM
selectivity ratio at 96 h [3]: 151
IC50 [5]: 17.6 µM
IC50 at 72 h [8]: 59 µM
Ratio IC50 [9]: 45
